The text below walks through data of paper PMC7661967, “Magnetic Resonance Molecular Imaging of Extradomain B Fibronectin Improves Imaging of Pancreatic Cancer Tumor Xenografts” (Frontiers in Oncology, 2020).

“Also recorded” adds a separate entry of the source. No end group written: not given here.

The nature of data set [1]: T1 and T2 relaxivity measurement at 3T. The following applies: 0-2 mM MT218 in DPBS buffer. The class given is physicochemical. How it is done:
The T1 and T2 values of MT218 and Gd(HP-DO3A) solutions were determined using a 3T MRS 3000 scanner (MR Solutions, Guildford, UK). Solutions of MT218 were prepared at concentrations of 0, 0.25, 0.5, 1, and 2 mM in DPBS buffer (Gibco, Gaithersburg, MD). T1 values were measured using an inversion recovery-fast low angle shot (IR-FLASH) sequence (τ = 10 ms, TE = 4 ms, FA = 8°, echoes/frames = 128, FOV = 40 mm × 40 mm, slice thickness = 2 mm, number of averages = 1, time delay = 4,000 ms, sample period = 200, matrix = 256 × 128). T2 values were obtained using a multi-echo multi-slice (MEMS) sequence (TE = 15 ms, […], echoes = 10, FOV: 40 mm × 40 mm, slice thickness = 1 mm, number of averages = 1, matrix = 256 × 192). The r1 and r2 relaxivities were calculated from the slopes of 1/T1 and 1/T2 vs. Gd concentration plots, respectively.

Data set [2] relates to Capan-1 flank tumor xenografts. The data set is described as follows: MRMI of Capan-1 flank tumor xenografts (7T). The class given is in vivo, human cells in female nu/nu mice. The following applies: 0.1 mmol/kg. How it is done:
(§1) For flank xenograft models, 4 × 10^6 Capan-1 cells suspended in 100 μL of a 6 mg/mL Matrigel (Corning, Corning, NY) solution was injected subcutaneously into the flank of 8-week-old female nu/nu mice. The tumor bearing mice were imaged after tumor volumes exceeded 300 mm^3. For orthotopic intrapancreatic models, the pancreas of 4-week-old female nu/nu mice were surgically exposed via a ~10 mm incision in the left ventral abdomen and the application of gentle pressure to express the spleen and associated pancreatic tissue. 1 × 10^6 BxPC3-GFP-Luc or PANC-1-GFP-Luc cells suspended in 100 μL of a Matrigel solution (6 mg/mL) was injected into the pancreatic tissue using an insulin syringe with a 31G needle. Any leakage of cell suspension was lavaged with DPBS twice to prevent intraabdominal seeding PaCa cells. The peritoneal fascia was closed with absorbable stitches, and the dermis closed with stainless steel wound clips. Prior to imaging, growth of tumor was verified by bioluminescence imaging with intraperitoneal injection of d-luciferin on IVIS Spectrum system (Perkin Elmer, Waltham, MA).
Flank tumor-bearing mice were anesthetized and a tail vein catheter inserted. MR image acquisition was performed on a 7T Biospin (Bruker, Billerica, MA) preclinical small animal scanner with a volume radiofrequency coil. Axial images were obtained using a multi-spin multi-echo (MSME) MRI sequence (500 ms TR, 8.1 ms TE, 90° FA, 4.50 cm × 4.50 cm FOV, 1.50 mm slice thickness, 16 slices, 2 averages, 200 × 200 matrix, 0.0225 × 0.0225 cm/pixel resolution). Contrast agents were injected at a dose of 0.1 mmol/kg (100 μL) via the tail vein catheter, followed by a saline flush. Images of the tumors were acquired before contrast and at various time points after contrast administration. Gd(HP-DO3A) was used as a control.
(§2) Image files were exported and analyzed in Horus software. ROIs were drawn in the tumor, liver, kidney, and muscle. Muscle ROIs were taken from the muscle, with other structures (liver, kidney, tumor) identified after comparison with published images and comparison with anatomical landmarks or bioluminescent imaging. Pancreatic lesions were localized using the liver, kidney, and spleen as anatomical landmarks. […] Size of ROIs drawn for image analysis are summarized in Supplementary Table 1. The contrast-to-noise ratio of the tumor (CNR) was calculated using the following equation, where σnoise is the standard deviation of intensities from an ROI drawn outside of the mouse body:
(§3) CNR=Mean IntensityTumor-Mean IntensityMuscle/σnoise.
(§4) Image subtraction was performed on images adjusted to the same window and level in FIJI open-source software.
(§5) Image contrast was reported as fold enhancement of contrast to noise ratio of post-contrast images over pre-contrast images using Fold Enhancement = CNRpost/CNRpre. Statistical analysis of CNR was performed in Minitab Express (Minitab Inc., State College, PA). One-way ANOVA with Fisher Individual Tests for Differences of Means post-hoc testing was performed to determine statistical significance between >2 means (p < 0.05). Student's T test was used to determine statistical significance between 2 means (p < 0.05).

The test system of data set [3] is BxPC3-GFP-Luc intrapancreatic tumor xenografts. The data set is described as follows: MRMI of BxPC3-GFP-Luc intrapancreatic tumor xenografts (3T). The class given is in vivo, human cells in female nu/nu mice. How it is done:
as §1
(§6) Mice bearing intrapancreatic tumors were anesthetized and a tail vein catheter was inserted. Image acquisition was performed on a MR Solutions 3T MRS 3000 scanner with a mouse radiofrequency coil. Axial images were obtained using a Fast Spin Echo (FSE) MRI sequence (305 ms TR, 11 ms TE, 90° FA, 4 cm × 4 cm FOV, 1 mm slice thickness, 10 slices, echo train length = 4, echo spacing = 11 ms, 4 averages, 256 × 256 matrix, 0.0156 × […] cm/pixel resolution) with respiratory gating. Images were acquired before contrast and at different time points after contrast injection at a dose of 0.1 mmol/kg (100 μL). For competitive binding experiments, a 5:1 molar ratio of free ZD2 peptide to MT218 was injected in mice bearing intrapancreatic BxPC3 tumor xenografts (n = 3) at a dose of 0.1 mmol MT218/kg (100 μL). Images obtained on the MR Solutions 3T scanner were normalized using the Surscalereader.exe (MR Solutions, Guildford, UK) program supplied.
as §2, §3, §4, §5

The test system of data set [4] is PANC-1-GFP-Luc intrapancreatic tumor xenografts. The data set is described as follows: MRMI of PANC-1-GFP-Luc intrapancreatic tumor xenografts (3T). The following applies: 0.1 mmol/kg, 10 min post-injection, n = 6. It is filed as in vivo, human cells in female nu/nu mice. How it is done: as §1, §6, §2, §3, §4, §5
Data set [5] concerns EDB-FN. The following applies: cited from earlier work. How it is done: ZD2 targeted MRI contrast agents have been developed and tested for MRMI of EDB-FN in aggressive breast cancer and prostate cancer models ([15], [16], [20]). The targeted contrast agent ZD2-N3-Gd(HP-DO3A) (MT218) was developed by conjugating ZD2 peptide to a clinical macrocyclic contrast agent Gd(HP-DO3A) ([16], [20]). […] MT218 is a small molecular conjugate of ZD2 peptide to a macrocyclic clinical MRI contrast agent Gd(HP-DO3A). The binding affinity of MT218 to EDB-FN was measured to be 3.2 ± 0.2 μM, which is similar to that of a previously targeted contrast agent ZD2-Gd(HP-DO3A) ([23]). The T1 and T2 relaxivities of MT218 were measured to be 6.07 ± 1.13 s^−1 mM^−1 and 8.20 ± 0.18 s^−1 mM^−1, respectively, at 3 T. T1 and T2 relaxivities of Gd(HP-DO3A) were measured to be 3.20 ± 0.96 s^−1 mM^−1 and 5. ...

For data set [6], the system named is EDB-FN. The data set is described as follows: Fluorescence staining of frozen mouse tumor xenograft and normal tissue sections. It is filed as binding, human PaCa xenografts in nu/nu mice. The following applies: for staining: ZD2-Cy5.5 500 nM, room temperature 2.5 h, BC-1 1:400, 4°C overnight. How it is done:
For assessment of binding specificity of ZD2 peptide, flash frozen samples of tumor and normal tissues were collected from the euthanized tumor bearing mice and embedded in optimal cutting temperature media. The embedded samples were then immersed in liquid nitrogen for 5 min and transferred to −80°C for storage before cryosectioning. Tissue sections were blocked for 1 h in PBS containing 0.05% Tween-20 and 10% normal goat serum (Gibco, Gaithersburg, MD) and then stained with BC-1 primary monoclonal antibody (1:400) or ZD2-Cy5.5 (500 nM) at 4°C overnight or room temperature incubation for 2.5 h, respectively, and then washed with PBS-T buffer. Secondary Alexa Fluor 594 anti-rabbit was incubated with the BC-1 treated sections for 1 h at room temperature (1:1,000). For the blocking experiment, the tissue sections were first incubated with an excess of BC1 antibody at 4°C overnight, then washed three times with PBS-T. The sections were then incubated with ZD2-Cy5.5 at room temperature incubation for 2.5 h. The stained sections were washed with PBS-T buffer and images were acquired on an Olympus FV1000 (Waltham, MA) confocal microscope using pre-programmed emission and excitation filters for Cy5.5 (excitation: 635 nm; emission: 693 nm) and DAPI (excitation: 405 nm; emission: 461 nm), using a 10 × objective lens.

Data set [7] has as its system EDB-FN. The data set is described as follows: ZD2-Cy5.5 staining of human pancreatic tissue. The following applies: 500 nM, 1 h, 37°C, confocal. The class given is binding. How it is done: Tissue sections from PaCa patients (Case Comprehensive Cancer Center, Cleveland, OH) were deparaffinized with xylene, ethanol, and washed with water. Blocking was performed with 10% goat serum (Invitrogen, Carlsbad, CA) in PBS with 0.1% Tween 20 (PBS-T) for 30 min and incubated with 500 nM ZD2-Cy5.5 in PBS-T for 1 h at 37°C. Following three washes with PBS-T, the sections were mounted using Fluoroshield mounting medium (Abcam, Cambridge, UK). Images were acquired on a FV1000 (Olympus, Waltham, MA) confocal microscope using pre-programmed emission and excitation filters for Cy5.5 (excitation: 635 nm; emission: 693 nm) and DAPI (excitation: 405 nm; emission: 461 nm), using a 10 × objective lens. All tissue samples were imaged at the same laser power and sensor gain. Images were generated from single-channel grayscale images using FIJI software.

A further data set deals with EDB fragment of FN. The data set is described as follows: MST; NT-647-labelled EDB fragment at a fixed concentration, MT218 varied; 50 mM PBS w/0.05% Tween-20; 25°C; Monolith NT.115.
For data set [8], the target named is extradomain B fibronectin in human PaCa tumor xenografts in mice (human (endogenous in BxPC3, Capan-1 and PANC-1 xenografts)).
The target is the same in data set [9]. This is another data set of the same source.
[10] abbreviates: 0.1 mmol/kg, 10 min post-injection, n = 3.

In the case of `CC(O)CN1CCN(CC(=O)[O-])CCN(CC(=O)[O-])CCN(CC(=O)[O-])CC1.[Gd+3]` (stereo not drawn) [Gd(HP-DO3A), reference compound], the “T1 relaxivity (r1)” value in data set [1] (IR-FLASH) worked out at 3.20 ± 0.96 s⁻¹ mM⁻¹. The “T2 relaxivity (r2)” value in data set [1] (MEMS) amounted to 5.12 ± 0.18 s⁻¹ mM⁻¹. In addition, in [2] (after injection), the “contrast enhancement in tumor core” value is “did not exhibit significant tumor core enhancement”. Besides, the “enhancement in tumor periphery, subtraction images” value in data set [2] (early time points (5–15 min post-contrast)) was “modest peripheral contrast enhancement”. In data set [2] (for the duration of the experiment, n = 5), the “intratumoral CNR increase (post/pre)” value was determined as 1.77 fold. The “contrast enhancement throughout tumors, subtraction images” value in [2] (later time points (25–35 min) for MT218, all time points for Gd(HP-DO3A)) is “little to no intratumoral contrast”. In data set [2] (p < 0.01), the “intratumoral CNR increase compared with MT218” value is listed as “significantly less than MT218”. Further, the “tumor CNR increase compared with MT218” value in [3] (0.1 mmol/kg, 10 min, p < 0.01) was “significantly less than that with MT218”. The “tumor CNR increase (post/pre)” value in [3] (0.1 mmol/kg, 10 min post-injection (maximum for MT218), n = 3) is on record as “approximately 2.5 fold”. In data set [3] (setting [10]), the tumor contrast enhancement entry is on record as “modest contrast enhancement” and the “tumor enhancement, subtraction images” value is “less intratumoral signal enhancement”. Further, the tumor contrast enhancement entry in data set [3] (0.1 mmol/kg, 20 min post-injection, n = 3) was “reduced to background level”. Also, in data set [4], the “intratumoral CNR increase (post/pre)” value came to 2.35 fold; the tumor contrast enhancement result was “did not produce significant tumor contrast enhancement”; the “tumor signal enhancement, subtraction images” value was “little change”.
Take TVRTSAD [ZD2]: in [3] (5:1 molar ratio free ZD2 peptide to MT218, co-injection, n = 3), the “effect of free ZD2 peptide on binding of MT218” value was “blocked the binding of the MT218 to the tumors; also recorded: inhibited the binding of MT218”. Further, the “binding to EDB-FN (specificity)” value in the data set with EDB-FN [5] is “binds with high specificity to EDB-FN”.
Regarding “ZD2-Cy5.5: peptide-fluorophore conjugate (TVRTSAD; also: Cy5.5 conjugate, end of attachment not given here)”, the staining entry in the data set on EDB-FN [6] (BxPC3, Capan-1 and PANC-1 tumor tissues) is “high in all three tumor tissues”; in the data set with EDB-FN [6] (normal pancreatic and muscle tissues), “undetectable; also recorded: No staining”. Also, the “ZD2-Cy5.5 binding after blocking” value in the data set on EDB-FN [6] (flash frozen tumor tissues pre-incubated with excess BC-1 antibody, 4°C overnight, then ZD2-Cy5.5) is “No fluorescent signal; also recorded: blocked”. Also, the “ZD2-Cy5.5 binding / EDB-FN expression” value with EDB-FN [7] (human PaCa tissue) was “high EDB-FN expression and high”; in the data set on EDB-FN [7] (normal pancreatic tissue), “little expression and low”; in the data set on EDB-FN [7] (precancerous PanIN tissue) it was “moderate expression”.
TVRTSAD (also: conjugated to Gd(HP-DO3A) via N3, end of attachment not given here) [ZD2-N3-Gd(HP-DO3A)] yielded a Kd with EDB fragment of FN of 3.2 µM. Besides, in [8], the tumor CNR fold increase, T1-weighted MRI, BxPC3-GFP-Luc intrapancreatic model, MT218 0.1 mmol/kg without the free ZD2 peptide stood at 4.5 fold and the tumor contrast-to-noise ratio (CNR) fold increase, T1-weighted MRI, BxPC3-GFP-Luc intrapancreatic model, MT218 0.1 mmol/kg co-injected with a 5-fold excess of free ZD2 peptide was 2.5 fold. Also, the tumor CNR fold increase, T1-weighted MRI, Capan-1 flank xenografts, MT218 0.1 mmol/kg, time course 5-35 min post-injection (maximum at 15 min) in [9] turned out to be 4.8 fold.
